Results: patent US11753407B2, “Compounds for treating spinal muscular atrophy” (PTC Therapeutics, Inc., priority 2012, dated 2023)

How the values were obtained:
[1] = tested on: Smn protein in SMA patient fibroblast cells (GM03813); experiment: Smn protein assay in cultured cells (SMN HTRF); format: cell-based, human; details: SMA patient fibroblast cells, 48 hours; for EC1.5x for Smn protein expression: 7-point concentration curve, SMN HTRF, concentration producing 1.5 times Smn protein vs DMSO vehicle control; for maximum fold (Fold) increase of Smn protein: 7-point concentration data, fold relative to vehicle control
How it was run: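 Smn protein quantified by HTRF with anti-SMN d2/kryptate pair, 665/620 nm ratio blank-corrected, in RIPA lysates of GM03813 fibroblasts after 48 h compound exposure (7 concentrations, 3.16-fold steps, triplicates). Values: concentration producing 1.5× vehicle Smn level, and maximal fold increase.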

[2] = tested on: SMN2 minigene mRNA (SMN2-A minigene) in HEK293H cells; experiment: SMN2 minigene mRNA splicing RT-qPCR assay in cultured cells; format: cell-based, human; details: Homo sapiens, HEK293-H; concentration increasing full length SMN2 mRNA 1.5-fold relative to vehicle-treated cells; HEK293H cells with SMN2-A minigene, 24 hours, 7-point concentration data; read-out: EC1.5x for production of full length SMN2 mRNA
How it was run: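 EC1.5× = concentration raising full-length SMN2 minigene mRNA 1.5-fold over vehicle, from 7-point curves in duplicate. Stably transfected HEK293H cells exposed 24 h at 37 °C; lysates assayed by multiplex RT-qPCR, minigene FL signal normalized to GAPDH via modified ΔΔCt.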

Row | SMILES | EC1.5x for Smn protein expression [1] | maximum fold (Fold) increase of Smn protein [1] | EC (1.5-fold increase) [2] | melting point
1 | Cc1cn2nc(-c3cc(=O)n4cc(N5CCNCC5)ccc4n3)cc2cn1 [Compound 420, 2-(6-methylpyrazolo[1,5-a]pyrazin-2-yl)-7-(piperazin-1-yl)-4H-pyrido[1,2-a]pyrimidin-4-one] | **** (an EC1.5x≤0.3 μM is indicated by four stars (****)) | **** (a fold increase between >1.5 and ≤1.65 is indicated by four stars (****)) | < 0.1 µM | 202 to 204 °C
2 | Cc1nc2ccc(-c3cc(=O)n4cc(C5=CCN(C)CC5)ncc4n3)cc2o1 [Compound 422, 2-(2-methyl-1,3-benzoxazol-6-yl)-7-(1-methyl-1,2,3,6-tetrahydropyridin-4-yl)-4H-pyrazino[1,2-a]pyrimidin-4-one] | ** (an EC1.5× between >1 μM and ≤3 μM is indicated by two stars (**)) | *** (a fold increase between >1.35 and ≤1.5 is indicated by three stars (***)) | < 0.1 µM | 240 to 242 °C
3 | CCN1CC=C(c2cn3c(=O)cc(-c4ccc5nc(C)oc5c4)nc3cn2)CC1 [Compound 423, 7-(1-ethyl-1,2,3,6-tetrahydropyridin-4-yl)-2-(2-methyl-1,3-benzoxazol-6-yl)-4H-pyrazino[1,2-a]pyrimidin-4-one] | *** (an EC1.5× between >0.3 μM and ≤1 μM is indicated by three stars (***)) | **** (a fold increase between >1.5 and ≤1.65 is indicated by four stars (****)) | < 0.1 µM | 225 to 227 °C
4 | Cc1nc2ccc(-c3cc(=O)n4cc(C5CCNCC5)ccc4n3)cc2s1 [Compound 424, 2-(2-methyl-1,3-benzothiazol-6-yl)-7-(piperidin-4-yl)-4H-pyrido[1,2-a]pyrimidin-4-one] | **** (an EC1.5x≤0.3 μM is indicated by four stars (****)) | ***** (a fold increase >1.65 is indicated by five stars (*****)) | < 0.1 µM | 222 to 224 °C
5 | Cc1cn2nc(-c3cc(=O)n4cc(N5CCC(N6CCCC6)CC5)ccc4n3)cc2c(C)n1 [Compound 425, 2-(4,6-dimethylpyrazolo[1,5-a]pyrazin-2-yl)-7-[4-(pyrrolidin-1-yl)piperidin-1-yl]-4H-pyrido[1,2-a]pyrimidin-4-one] | **** (an EC1.5x≤0.3 μM is indicated by four stars (****)) | ***** (a fold increase >1.65 is indicated by five stars (*****)) | < 0.1 µM | 215 to 218 °C
6 | Cc1cn2nc(-c3cc(=O)n4cc(N5CCC(N6CCCCC6)CC5)ccc4n3)cc2c(C)n1 [Compound 426, 7-(1,4′-bipiperidin-1′-yl)-2-(4,6-dimethylpyrazolo[1,5-a]pyrazin-2-yl)-4H-pyrido[1,2-a]pyrimidin-4-one] | *** (an EC1.5× between >0.3 μM and ≤1 μM is indicated by three stars (***)) | ***** (a fold increase >1.65 is indicated by five stars (*****)) | 0.3 to 1 µM | 236 to 238 °C
7 | Cc1cn2nc(-c3cc(=O)n4cc(N5CCC(N6CCN(C)CC6)CC5)ccc4n3)cc2c(C)n1 [Compound 427, 2-(4,6-dimethylpyrazolo[1,5-a]pyrazin-2-yl)-7-[4-(4-methylpiperazin-1-yl)piperidin-1-yl]-4H-pyrido[1,2-a]pyrimidin-4-one] | * (An EC1.5× for Smn protein expression between >3 μM and ≤10 μM is indicated by one star (*)) | *** (a fold increase between >1.35 and ≤1.5 is indicated by three stars (***)) | 1 to 3 µM | 198 to 200 °C
8 | Cc1cn2nc(-c3cc(=O)n4cc(N5CCC(N6CCOCC6)CC5)ccc4n3)cc2c(C)n1 [Compound 428, 2-(4,6-dimethylpyrazolo[1,5-a]pyrazin-2-yl)-7-[4-(morpholin-4-yl)piperidin-1-yl]-4H-pyrido[1,2-a]pyrimidin-4-one] | ** (an EC1.5× between >1 μM and ≤3 μM is indicated by two stars (**)) | *** (a fold increase between >1.35 and ≤1.5 is indicated by three stars (***)) | 0.3 to 1 µM | 192 to 195 °C
9 | Cc1cn2cc(-c3cc(=O)n4cc(C5=CCNCC5)ccc4n3)ccc2n1 [Compound 429, 2-(2-methylimidazo[1,2-a]pyridin-6-yl)-7-(1,2,3,6-tetrahydropyridin-4-yl)-4H-pyrido[1,2-a]pyrimidin-4-one] | **** (an EC1.5x≤0.3 μM is indicated by four stars (****)) | **** (a fold increase between >1.5 and ≤1.65 is indicated by four stars (****)) | < 0.1 µM | 206 to 208 °C
10 | Cc1cn2cc(-c3cc(=O)n4cc(C5=CCN(C)CC5)ccc4n3)ccc2n1 [Compound 430, 2-(2-methylimidazo[1,2-a]pyridin-6-yl)-7-(1-methyl-1,2,3,6-tetrahydropyridin-4-yl)-4H-pyrido[1,2-a]pyrimidin-4-one] | **** (an EC1.5x≤0.3 μM is indicated by four stars (****)) | **** (a fold increase between >1.5 and ≤1.65 is indicated by four stars (****)) | < 0.1 µM | 137 to 140 °C
11 | CCN1CC=C(c2ccc3nc(-c4ccc5nc(C)cn5c4)cc(=O)n3c2)CC1 [Compound 431, 7-(1-ethyl-1,2,3,6-tetrahydropyridin-4-yl)-2-(2-methylimidazo[1,2-a]pyridin-6-yl)-4H-pyrido[1,2-a]pyrimidin-4-one] | **** (an EC1.5x≤0.3 μM is indicated by four stars (****)) | ***** (a fold increase >1.65 is indicated by five stars (*****)) | < 0.1 µM | 220 to 223 °C
12 | Cc1cn2cc(-c3cc(=O)n4cc(N5CCC(N(C)C)CC5)ccc4n3)ccc2n1 [Compound 432, 7-[4-(dimethylamino)piperidin-1-yl]-2-(2-methylimidazo[1,2-a]pyridin-6-yl)-4H-pyrido[1,2-a]pyrimidin-4-one] | **** (an EC1.5x≤0.3 μM is indicated by four stars (****)) | ***** (a fold increase >1.65 is indicated by five stars (*****)) | < 0.1 µM | 204 to 206 °C
13 | COc1ccc(-c2cc(=O)n3cc(N4CCC(NCCO)CC4)cc(C)c3n2)cc1OC [Compound 433, 2-(3,4-dimethoxyphenyl)-7-{4-[(2-hydroxyethyl)amino]piperidin-1-yl}-9-methyl-4H-pyrido[1,2-a]pyrimidin-4-one] |  | *** (a fold increase between >1.35 and ≤1.5 is indicated by three stars (***)) | < 0.1 µM | 185 to 193 °C
14 | CCc1cc(C2CCN(C)CC2)cn2c(=O)cc(-c3ccc(OC)c(OC)c3)nc12 [Compound 434, 2-(3,4-dimethoxyphenyl)-9-ethyl-7-(1-methylpiperidin-4-yl)-4H-pyrido[1,2-a]pyrimidin-4-one] |  | ** (a fold increase between >1.2 and ≤1.35 is indicated by two stars (**)) | 0.3 to 1 µM | 146 °C
